Assays:
Adenosine receptor A2a = Adenosine receptor A2a (Homo sapiens, UniProt P29274); assay: DRUGMATRIX: Adenosine A2A radioligand binding (ligand: […]); format: cell membranes, HEK293, Membrane; settings: hek293; Not Active = under 50% inhibition at 10 µM
[1] = target: T1, Neuropeptide Y receptor type 2 (Homo sapiens, UniProt P49146); format: cell membranes, Membrane; settings: kan-ts; note: in other assays of this panel Not Active means under 50% inhibition at 10 µM
T1 sequence (P49146 whole entry): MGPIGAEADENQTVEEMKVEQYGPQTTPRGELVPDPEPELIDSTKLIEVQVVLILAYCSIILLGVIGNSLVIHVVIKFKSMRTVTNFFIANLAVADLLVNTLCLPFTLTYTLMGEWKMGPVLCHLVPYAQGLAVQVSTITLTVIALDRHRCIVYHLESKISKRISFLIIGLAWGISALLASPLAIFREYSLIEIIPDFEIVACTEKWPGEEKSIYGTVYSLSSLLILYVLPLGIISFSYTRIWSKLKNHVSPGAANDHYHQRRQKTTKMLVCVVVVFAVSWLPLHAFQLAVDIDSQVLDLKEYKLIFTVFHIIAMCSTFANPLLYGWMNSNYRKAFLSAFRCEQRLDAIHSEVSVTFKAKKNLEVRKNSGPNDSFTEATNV

[2] = target: Receptor tyrosine-protein kinase erbB-2 (Homo sapiens, UniProt P04626); assay: biochemical; format: cell-based, Insect cells; settings: insect cells;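 note: inhibition of HER2 kinase enzyme activity, measured with Poly(Glu:Tyr) as the phosphorylation substrate; in other assays of this panel Not Active means under 50% inhibition at 10 µM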
Interstitial collagenase = target: T2, Interstitial collagenase (Homo sapiens, UniProt P03956); format: tissue-based, Rheumatoid synovial fibroblasts;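 note: MMP-1 enzyme inhibition assay using a peptide substrate; in other assays of this panel Not Active means under 50% inhibition at 10 µM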
T2 sequence (P03956 whole entry): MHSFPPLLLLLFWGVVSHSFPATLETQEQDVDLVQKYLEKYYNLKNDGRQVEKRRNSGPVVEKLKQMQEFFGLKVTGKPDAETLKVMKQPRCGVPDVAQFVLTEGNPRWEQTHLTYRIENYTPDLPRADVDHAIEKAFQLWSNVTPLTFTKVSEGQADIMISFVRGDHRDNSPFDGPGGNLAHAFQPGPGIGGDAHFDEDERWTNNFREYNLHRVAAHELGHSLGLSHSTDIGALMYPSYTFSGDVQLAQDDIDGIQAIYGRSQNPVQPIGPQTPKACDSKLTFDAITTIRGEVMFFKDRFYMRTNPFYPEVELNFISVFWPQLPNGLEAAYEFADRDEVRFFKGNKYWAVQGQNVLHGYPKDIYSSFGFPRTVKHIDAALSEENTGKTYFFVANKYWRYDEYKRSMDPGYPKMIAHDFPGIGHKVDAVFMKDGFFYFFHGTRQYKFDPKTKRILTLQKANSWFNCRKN

[3] = target: C-C chemokine receptor type 2 (Homo sapiens, UniProt P41597); format: cell membranes, CHO-K1, Membrane; settings: cho-k1; note: in other assays of this panel Not Active means under 50% inhibition at 10 µM
[4] = target: Sodium-dependent noradrenaline transporter (Homo sapiens, UniProt P23975); assay: DRUGMATRIX: Norepinephrine Transporter radioligand binding (ligand: [125I] RTI-55); format: cell membranes, MDCK, Membrane; settings: mdck, Not Active = under 50% inhibition at 10 µM
Chain of Sodium-dependent noradrenaline transporter (P23975 whole entry): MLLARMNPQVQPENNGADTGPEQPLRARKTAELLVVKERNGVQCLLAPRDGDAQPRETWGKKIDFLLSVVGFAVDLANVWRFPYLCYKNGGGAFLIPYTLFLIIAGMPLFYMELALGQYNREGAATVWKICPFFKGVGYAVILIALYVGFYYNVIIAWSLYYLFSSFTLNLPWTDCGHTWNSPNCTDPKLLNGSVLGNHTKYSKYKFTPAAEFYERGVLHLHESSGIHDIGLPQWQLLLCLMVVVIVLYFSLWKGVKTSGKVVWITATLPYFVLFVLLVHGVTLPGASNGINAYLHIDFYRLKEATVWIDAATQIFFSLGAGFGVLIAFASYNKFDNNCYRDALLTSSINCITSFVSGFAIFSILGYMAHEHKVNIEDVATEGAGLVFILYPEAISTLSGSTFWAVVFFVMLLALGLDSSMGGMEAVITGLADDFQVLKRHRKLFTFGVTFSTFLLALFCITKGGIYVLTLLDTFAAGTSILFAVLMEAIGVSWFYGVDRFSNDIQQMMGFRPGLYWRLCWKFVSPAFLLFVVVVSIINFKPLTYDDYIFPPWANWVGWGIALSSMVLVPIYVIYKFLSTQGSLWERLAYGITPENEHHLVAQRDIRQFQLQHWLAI

Chain of C-C chemokine receptor type 2 (P41597 whole entry): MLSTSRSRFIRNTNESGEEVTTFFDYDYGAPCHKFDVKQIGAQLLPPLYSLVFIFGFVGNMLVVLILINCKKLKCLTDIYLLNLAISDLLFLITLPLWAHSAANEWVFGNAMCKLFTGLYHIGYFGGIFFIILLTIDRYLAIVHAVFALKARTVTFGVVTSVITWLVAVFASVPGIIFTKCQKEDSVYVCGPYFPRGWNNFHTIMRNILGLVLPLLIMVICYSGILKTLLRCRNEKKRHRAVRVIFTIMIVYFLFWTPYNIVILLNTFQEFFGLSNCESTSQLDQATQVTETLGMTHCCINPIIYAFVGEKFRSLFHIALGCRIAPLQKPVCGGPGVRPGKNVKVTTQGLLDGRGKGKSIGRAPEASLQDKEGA
Chain of Adenosine receptor A2a (P29274 whole entry): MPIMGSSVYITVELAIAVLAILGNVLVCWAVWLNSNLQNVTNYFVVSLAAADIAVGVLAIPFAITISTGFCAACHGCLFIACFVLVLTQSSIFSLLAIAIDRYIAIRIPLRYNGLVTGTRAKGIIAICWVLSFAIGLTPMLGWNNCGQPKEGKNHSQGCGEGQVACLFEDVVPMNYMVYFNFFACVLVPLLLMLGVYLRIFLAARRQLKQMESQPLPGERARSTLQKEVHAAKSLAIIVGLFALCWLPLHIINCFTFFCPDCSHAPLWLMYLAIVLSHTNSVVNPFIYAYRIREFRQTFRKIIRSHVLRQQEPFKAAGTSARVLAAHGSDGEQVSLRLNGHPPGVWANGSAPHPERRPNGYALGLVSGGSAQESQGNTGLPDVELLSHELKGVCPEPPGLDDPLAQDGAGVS

Row | Molecule | IC50 (Adenosine receptor A2a) | IC50 [1] | IC50 [2] | IC50 (Interstitial collagenase) | IC50 [3] | IC50 [4] | Ki (Adenosine receptor A2a) | Ki [1] | Ki [2] | Ki (Interstitial collagenase) | Ki [3] | Ki [4] | IC50 ([4]; read-out: IC50) | Ki ([4]; read-out: Ki)
1 | COc1cc(C(=O)NS(=O)(=O)c2ccccc2C)ccc1Cc1cn(C)c2ccc(NC(=O)OC3CCCC3)cc12 [ZAFIRLUKAST] | Not Active | Not Active | Not Active | Not Active | Not Active | Not Active |  |  |  |  |  |  |  | 
2 | Cc1cn([C@H]2C[C@H](N=[N+]=[N-])[C@@H](CO)O2)c(=O)[nH]c1=O [ZIDOVUDINE] | Not Active | Not Active | Not Active | Not Active | Not Active | Not Active |  |  |  |  |  |  |  | 
3 | STANNOUS FLUORIDE | Not Active | Not Active | Not Active | Not Active | Not Active | Not Active | Not Active | Not Active | Not Active | Not Active | Not Active | Not Active |  | 
4 | THIMEROSAL | Not Active | Not Active | Not Active | Not Active | Not Active |  | Not Active | Not Active | Not Active | Not Active | Not Active |  | 0.931 µM | 0.923 µM

— ChEMBL document CHEMBL1909046, “DrugMatrix in vitro pharmacology data”
